In patent US20130116231A1, “TYROSINE KINASE INHIBITORS” (Merck Sharp & Dohme Corp., priority 2010, published 2013) one finds IC50 data, which are given here for 27 compounds.

T1 sequence (P08581 956-1390 limits assumed): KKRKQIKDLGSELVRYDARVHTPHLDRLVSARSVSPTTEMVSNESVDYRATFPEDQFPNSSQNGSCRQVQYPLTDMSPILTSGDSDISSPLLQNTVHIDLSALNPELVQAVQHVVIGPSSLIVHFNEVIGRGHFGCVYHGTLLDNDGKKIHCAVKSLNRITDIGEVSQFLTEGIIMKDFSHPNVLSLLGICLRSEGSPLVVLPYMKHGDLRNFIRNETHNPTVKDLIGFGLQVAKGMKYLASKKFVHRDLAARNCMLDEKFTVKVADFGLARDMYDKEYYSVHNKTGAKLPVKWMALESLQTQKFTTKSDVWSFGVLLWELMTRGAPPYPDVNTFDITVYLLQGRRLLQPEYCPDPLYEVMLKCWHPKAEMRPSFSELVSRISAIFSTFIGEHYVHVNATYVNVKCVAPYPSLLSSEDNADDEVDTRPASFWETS

This assay addresses T1, human c-Met (Homo sapiens, UniProt P08581).
T1 construct: Recombinant GST-tagged cytosolic domains of human c-Met; 6xHis; made in house; host or cells: Sf9 or Sf21 insect cells (baculovirus)
Briefly: in vitro kinase assay (homogeneous time-resolved tyrosine kinase assay, METKA). It is filed as biochemical. As to conditions: recombinant GST-tagged c-Met cytosolic domain, HTRF, 50 μM MgATP; read-out: Biological Activity (METKA IC50) Activity Code. An excerpt:
Recombinant GST-tagged cytosolic domains of human c-Met and other receptor tyrosine kinases including mouse c-Met, human Ron, KDR, IGFR, EGFR, FGFR, Mer, TrkA and Tie2 are used to determine whether the compounds of the instant invention modulate the enzymatic activities of these kinases.
Soluble recombinant GST-tagged cytosolic domains of c-Met and other receptor tyrosine kinases are expressed in a baculovirus system (Pharmingen) according to a protocol recommended by the manufacturer. The c-DNA encoding each cytosolic domain is subcloned into a baculovirus expression vector (pGcGHLT-A, B or C, Pharmingen) containing an in frame 6× histidine tag and a GST tag. The resulting plasmid construct and BaculoGold baculovirus DNA (Pharmingen) are used to co-transfect Sf9 or Sf21 insect cells. After confirming expression of GST-tagged kinase fusion, a high titer recombinant baculovirus stock is produced, expression conditions are optimized, and a scaled up expression of rat KDR-GST fusion is performed. The fusion kinase is then purified from the insect cell lysate by affinity chromatography using glutathione agarose (Pharmingen). The purified protein is dialyzed against 50% glycerol, 2 mM DTT, 50 mM Tris-HCl (pH 7.4) and stored at −20° C. The protein concentrations of the fusion proteins are determined using Coomassie Plus Protein Assay (Pierce) with BSA as standard.
The kinase activities of c-Met and other kinases are measured using a modified version of the homogeneous time-resolved tyrosine kinase assay described by Park et al. (1999, Anal. Biochem. 269:94-104).
The procedure for determining the potency of a compound to inhibit c-Met kinase comprises the following steps: • 1. Prepare 3-fold serial diluted compound solutions in 100% dimethyl sulfoxide (DMSO) at 20× of the desired final concentrations in a 96 well plate. • 2. Prepare a master reaction mix containing 6.67 mM MgCl2, 133.3 mM NaCl, 66.7 mM Tris-HCl (pH 7.4), 0.13 mg/ml BSA, 2.67 mM dithiothreitol, 0.27 nM recombinant c-Met and 666.7 nM biotinylated synthetic peptide substrate (biotin-ahx-EQEDEPEGDYFEWLE-CONH2) (SEQ.ID.NO.:1). • 3. In a black assay plate, add 2.5 μl of compound solution (or DMSO) and 37.5 μl of master reaction mix per well. Initiate the kinase reaction by adding 10 μl of 0.25 mM MgATP per well. Allow the reactions to proceed for 80 min at room temperature. The final conditions for the reaction are 0.2 nM c-Met, 0.5 μM substrate, 50 μM MgATP, […], 100 mM NaCl, 2 mM DTT, 0.1 mg/ml BSA, 50 mM Tris (pH 7.4) and 5% DMSO. • 4. Stop the kinase reaction with 50 μl of Stop/Detection buffer containing 10 mM EDTA, 25 mM HEPES, 0.1% TRITON X-100, 0.126 μg/ml Eu-chelate labeled anti-phosphotyrosine antibody PY20 (cat. #AD0067, PerkinElmer) and 45 μg/ml Streptavidin-allophycocyanin conjugate (cat. #PJ25S, Prozyme). • 5. Read HTRF signals on a Victor reader (PerkinElmer) in HTRF mode after 60 min. • 6. IC50 is determined by fitting the observed relationship between compound concentration and HTRF signal with a 4-parameter logistic equation. Essentially the same procedure was used to determine the potency of compounds to inhibit mouse c-Met, human Ron, KDR, IGFR, EGFR, FGFR, Mer, TrkA and Tie2 except that the concentration of enzyme varied in individual assays (0.2 nM mouse c-Met; 2.5 nM Ron, 8 nM KDR; 0.24 nM IGFR; 0.24 nM EGFR; 0.14 nM FGFR; 16 nM Mer; 8 nM TrkA; 8 nM Tie2).
On the technique in general: Time-resolved FRET reads energy transfer from a long-lived donor to a nearby acceptor.
Consider `COc1ccnc2ccc(C(C)Oc3nn(-c4cnn(C)c4)ccc3=O)cc12` (single isomer, unassigned) [Example 145, 3-[1-(4-methoxyquinolin-6-yl)ethoxy]-1-(1-methyl-1H-pyrazol-4-yl)pyridazin-4(1H)-one], for which the IC50 (in general, the concentration at which inhibition is half-maximal) is under 100 nM.

With `COCCOc1cnc2ccc(C(C)Oc3nn(-c4cnn(C)c4)ccc3=O)cc2c1` (single isomer, unassigned) [Example 143, 3-{1-[3-(2-methoxyethoxy)quinolin-6-yl]ethoxy}-1-(1-methyl-1H-pyrazol-4-yl)pyridazin-4(1H)-one], the half-maximal inhibitory concentration (IC50) is under 100 nM.

For the compound `CCn1cc(-n2ccc(=O)c(COc3ccc4ncc(-c5cncnc5)cc4c3)n2)cn1` [Example 85, 1-(1-ethyl-1H-pyrazol-4-yl)-3-{[(3-pyrimidin-5-ylquinolin-6-yl)oxy]methyl}pyridazin-4(1H)-one], the half-maximal inhibitory concentration (IC50) was under 100 nM.

Take `Cn1cc(-n2ccc(=O)c(COc3ccc4ncncc4c3)n2)cn1` [Example 27, 1-(1-methyl-1H-pyrazol-4-yl)-3-[(quinazolin-6-yloxy)methyl]pyridazin-4(1H)-one]: the IC50 was 100 to 1000 nM.

As to `Cn1cc(-n2ccc(=O)c(COc3ccc4ncc(NC(=O)OC(C)(C)C)cc4c3)n2)cn1` [Example 110, tert-butyl (6-{[1-(1-methyl-1H-pyrazol-4-yl)-4-oxo-1,4-dihydropyridazin-3-yl]methoxy}quinolin-3-yl)carbamate], the IC50 is under 100 nM.

On to `CCn1cc(-n2ccc(=O)c(COc3ccc4ncc(-c5ccc(N6CCOCC6)nc5)cc4c3)n2)cn1` [Example 87, 1-(1-ethyl-1H-pyrazol-4-yl)-3-({[3-(6-morpholin-4-ylpyridin-3-yl)quinolin-6-yl]oxy}methyl)pyridazin-4(1H)-one], for which the half-inhibitory concentration (IC50) is under 100 nM.

With `CCOc1cnc2ccc(OCc3nn(-c4ccc(F)c(F)c4)ccc3=O)cc2c1` [Example 46, 1-(3,4-difluorophenyl)-3-{[(3-ethoxyquinolin-6-yl)oxy]methyl}pyridazin-4(1H)-one], the IC50 was under 100 nM.

Take `N#Cc1ccc(-n2ccc(=O)c(COc3ccc4ncccc4c3)n2)cc1` [Example 5, 4-{4-oxo-3-[(quinolin-6-yloxy)methyl]pyridazin-1(4H)-yl}benzonitrile]: the IC50 was under 100 nM.

Turning to `C=C(Cc1nn(-c2cnn(C)c2)ccc1=O)c1ccc2ncccc2c1` [Example 124, 1-(1-Methyl-1H-pyrazol-4-yl)-3-(2-quinolin-6-ylprop-2-en-1-yl)pyridazin-4(1H)-one], the 50% inhibitory concentration (IC50) was 100 to 1000 nM.

`CC(Cc1nn(-c2cnn(C)c2)ccc1=O)c1ccc2ncccc2c1` (single isomer, unassigned) [Example 125, 1-(1-methyl-1H-pyrazol-4-yl)-3-(2-quinolin-6-ylpropyl)pyridazin-4(1H)-one]: the IC50 was under 100 nM.

With `Cc1ccnc2ccc(OCc3nn(-c4cnn(C)c4)ccc3=O)cc12` [Example 50, 1-(1-methyl-1H-pyrazol-4-yl)-3-{[(4-methylquinolin-6-yl)oxy]methyl}pyridazin-4(1H)-one], the concentration for half-maximal inhibition (IC50) was under 100 nM.

As to `CCn1cc(-n2ccc(=O)c(OC(C)c3ccc4nccc(OC)c4c3)n2)cn1` (single isomer, unassigned) [Example 146, 1-(1-ethyl-1H-pyrazol-4-yl)-3-[1-(4-methoxyquinolin-6-yl)ethoxy]pyridazin-4(1H)-one], the IC50 is under 100 nM.

Consider `CCn1cc(-n2ccc(=O)c(OC(C)c3ccc4nccc(OC)c4c3)n2)cn1` (stereo not drawn) [Example 132, 1-(1-ethyl-1H-pyrazol-4-yl)-3-[1-(4-methoxyquinolin-6-yl)ethoxy]pyridazin-4(1H)-one], for which the concentration for half-maximal inhibition (IC50) is under 100 nM.

Turning to `Cn1cc(-n2ccc(=O)c(COc3ccc4ncc(-n5ccnn5)cc4c3)n2)cn1` [Example 42, 1-(1-Methyl-1H-pyrazol-4-yl)-3-({[3-(1H-1,2,3-triazol-1-yl)quinolin-6-yl]oxy}methyl)pyridazin-4(1H)-one], the 50% inhibitory concentration (IC50) was under 100 nM.

On to `COc1ccnc2ccc(CCc3nn(-c4cnn(C)c4)ccc3=O)cc12` [Example 59, 3-[2-(4-methoxyquinolin-6-yl)ethyl]-1-(1-methyl-1H-pyrazol-4-yl)pyridazin-4(1H)-one], for which the IC50 was under 100 nM.

With `Cn1cc(-n2ccc(=O)c(COc3ccc4ncc(OCC5(C)COC5)cc4c3)n2)cn1` [Example 26, 3-[({3-[(3-methyloxetan-3-yl)methoxy]quinolin-6-yl}oxy)methyl]-1-(1-methyl-1H-pyrazol-4-yl)pyridazin-4(1H)-one], the half-inhibitory concentration (IC50) is under 100 nM.

For `COc1ccnc2ccc(C(C)Oc3nn(-c4cnn(C)c4)ccc3=O)cc12` (stereo not drawn) [Example 131, 3-[1-(4-methoxyquinolin-6-yl)ethoxy]-1-(1-methyl-1H-pyrazol-4-yl)pyridazin-4(1H)-one], the IC50 lay in the range of 100 to 1000 nM.

`COCCOc1cnc2ccc(CCc3nn(-c4cnn(C)c4)ccc3=O)cc2c1` [Example 57, 3-{2-[3-(2-methoxyethoxy)quinolin-6-yl]ethyl}-1-(1-methyl-1H-pyrazol-4-yl)pyridazin-4(1H)-one]: the IC50 was under 100 nM.

Take `Cn1cc(-n2ccc(=O)c(COc3ccc4nc(C#N)sc4c3)n2)cn1` [Example 14, 6-{[1-(1-methyl-1H-pyrazol-4-yl)-4-oxo-1,4-dihydropyridazin-3-yl]methoxy}-1,3-benzothiazole-2-carbonitrile]: the concentration for half-maximal inhibition (IC50) was in the range of 1000 to 3000 nM.

Turning to `COCc1cnc2ccc(OCc3nn(-c4cnn(C)c4)ccc3=O)cc2c1` [Example 73, 3-({[3-(methoxymethyl)quinolin-6-yl]oxy}methyl)-1-(1-methyl-1H-pyrazol-4-yl)pyridazin-4(1H)-one], the concentration for half-maximal inhibition (IC50) is under 100 nM.

With `Cn1cc(-n2ccc(=O)c(COc3ccc4ncc(OCC5CCOC5)cc4c3)n2)cn1` (stereo not drawn) [Example 25, 1-(1-methyl-1H-pyrazol-4-yl)-3-({[3-(tetrahydrofuran-3-ylmethoxy)quinolin-6-yl]oxy}methyl)pyridazin-4(1H)-one], the half-maximal inhibitory concentration (IC50) was under 100 nM.

With `Cn1cc(-n2ccc(=O)c(COc3ccc4ncc(OC5COC5)cc4c3)n2)cn1` [Example 63, 1-(1-Methyl-1H-pyrazol-4-yl)-3-({[3-(oxetan-3-yloxy)quinolin-6-yl]oxy}methyl)pyridazin-4(1H)-one], the IC50 is under 100 nM.

With `COCCOc1cnc2ccc(OCc3nn(-c4cccc(C(=O)N(C)C)c4)ccc3=O)cc2c1` [Example 52, 3-[3-({[3-(2-methoxyethoxy)quinolin-6-yl]oxy}methyl)-4-oxopyridazin-1(4H)-yl]-N,N-dimethylbenzamide], the IC50 was 1000 to 3000 nM.

On to `Cn1cc(-n2ccc(=O)c(COc3ccc4ncc(-c5cnn(C6CNC6)c5)cc4c3)n2)cn1` [Example 93, 3-[({3-[1-(Azetidin-3-yl)-1H-pyrazol-4-yl]quinolin-6-yl}oxy)methyl]-1-(1-methyl-1H-pyrazol-4-yl)pyridazin-4(1H)-one], for which the IC50 was under 100 nM.

As to `Cn1cc(-n2ccc(=O)c(COc3cccc4cnccc34)n2)cn1` [Example 2, 3-[(isoquinolin-5-yloxy)methyl]-1-(1-methyl-1H-pyrazol-4-yl)pyridazin-4(1H)-one], the half-inhibitory concentration (IC50) fell in the range of 1000 to 3000 nM.

Turning to `CCn1cc(-n2ccc(=O)c(COc3ccc4ncc(-c5ccccc5)cc4c3)n2)cn1` [Example 91, 1-(1-ethyl-1H-pyrazol-4-yl)-3-{[(3-phenylquinolin-6-yl)oxy]methyl}pyridazin-4(1H)-one], the IC50 was under 100 nM.

Turning to `Cc1cnc2ccc(OCc3nn(-c4cnn(C)c4)ccc3=O)cc2c1` [Example 71, 1-(1-Methyl-1H-pyrazol-4-yl)-3-{[(3-methylquinolin-6-yl)oxy]methyl}pyridazin-4(1H)-one], the IC50 is under 100 nM.
